EC50 data for 2 compounds are collected here from ChEMBL document CHEMBL5725952, “Imidazopyridine macrocycles as inhibitors of human immunodeficiency virus replication” (2018).

This assay can be described thus: Inhibition of HIV Replication: A recombinant NL-RLuc proviral clone was constructed in which a section of the nef gene from NL4-3 was replaced with the Renilla Luciferase gene. This virus is fully infectious and can undergo multiple cycles of replication in cell culture. In addition, the luciferous reporter provides a simple and easy method for quantitating the extent of virus growth and consequently, the antiviral activity of test compounds. The plasmid pNLRLuc contains the proviral NL-Rluc DNA cloned into pUC18 at the PvuII site. The NL-RLuc virus was prepared by transfection of 293T cells with the plasmid pNLRLuc. Transfections were performed using the LipofectAMINE PLUS kit from Invitrogen (Carlsbad, Calif.) according to the manufacturer and the virus generated was titered in MT-2 cells. For susceptibility analyses, the titrated virus was used to infect MT-2 cells in the presence of compound, and after 5 days of incubation, cells were processed and quantitated for virus growth by the amount of expressed luciferase. Assay media was RPMI 1640 supplemented with 10% heat inactivated fetal bovine serum (FBS), 100 units/ml penicillin G/100 units/ml streptomycin, 10 mM HEPES buffer pH 7.55 and 2 mM L-glutamine. The results from at least 2 experiments were used to calculate the EC50 values. Luciferase was quantitated using the Dual Luciferase kit from Promega (Madison, Wis.). […]. The format is cell-based. The following applies: […].

pEC50: −log10 of the molar value.

For the compound `Cc1c([C@@H](OC(C)(C)C)C(=O)O)c2n3cc(nc3c1C)-c1cccc(c1)-c1cc(F)c(F)cc1O[C@@H](C)COCCOC1(C)CCN2CC1`, the pEC50 – broadly, the negative decadic logarithm of the EC50, by convention in mol/L – was 6.26.
Next, `Cc1c([C@H](OC(C)(C)C)C(=O)O)c2n3cc(nc3c1C)-c1cccc(c1)-c1cc(F)c(F)cc1O[C@@H](C)COCCOC1(C)CCN2CC1`: above 7.00.
